Assay results: patent publication US7198931B2, “Phosphorylated glyoxalase I and its use” (Vlaams Interuniversitair Instituut voor Biotechnologie VZW, priority 2001, dated 2007)
Like-named read-outs stand apart in the source and are kept apart here.

What was measured:
Type in all cases: cell-based
L929 cells = test system: L929 cells
Description: Murine TNF (mTNF) was obtained from Roche Diagnostics and was used at 1000 IU/ml unless indicated otherwise. Propidium iodide (PI) and cycloheximide (CHX) (all from Sigma) were used at concentrations of 30 μM and 50 μg/ml, respectively.
Cell death in L929 was induced by addition of TNF to the cell suspension. Cell death was measured by quantifying PI-positive cells by FACS (FACSCalibur, Becton Dickinson, San Jose, Calif.). The PI dye was excited with an argon-ion laser at 488 nm; PI fluorescence was measured above 590 nm using a long-pass filter. Routinely, 3,000 cells were analyzed. Cell death is expressed as the percentage of PI-positive cells in the total cell population.

glyoxalase I = biological target: T1, glyoxalase I (Mus musculus, UniProt Q9CPU0); experiment: TNF-induced phosphorylation of glyoxalase I (32P labeling, 2-D gels, Western blot with anti-human glyoxalase I antibody)
T1 construct: TNF-induced phosphorylation of endogeneous glyoxalase I in L929 cells; endogenous in cells; host or cells: L929 cells
T1 sequence (Q9CPU0 2-184 limits assumed): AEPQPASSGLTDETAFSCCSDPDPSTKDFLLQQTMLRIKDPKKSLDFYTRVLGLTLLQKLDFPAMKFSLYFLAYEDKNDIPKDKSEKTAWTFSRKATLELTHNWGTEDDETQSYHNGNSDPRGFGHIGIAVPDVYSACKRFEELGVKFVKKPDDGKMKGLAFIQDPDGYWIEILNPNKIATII
Description: L929 cells were plated 48 hours prior to the experiment. ^32P labeling was carried out as described in (Guy et al., 1992). TNF treatments (1000 IU/ml, 1.5 hours) were done in the presence of cycloheximide (CHX), to synchronize cell death. To simplify the 2-D phosphoprotein pattern and subsequent computer-assisted analysis, we prepared two subcellular protein fractions. The cytosolic protein fraction, containing soluble cytoplasmic molecules and molecules derived from single-membrane organelles, was obtained as the supernatant from digitonin (0.03%)-permeabilized cells. After rinsing once with excess PBS buffer, the remaining cell fraction was lysed in a CHAPS (2%)-containing buffer as described in (Guy et al., 1992). This lysate was then centrifuged (20,000 g) and the supernatant was used as the organelle fraction; it is enriched for mitochondrial and cytoskeleton-derived proteins.
Isoelectric focusing. […] Protein samples were precipitated with ethanol and redissolved in lysis buffer.
SDS-PAGE. The second dimension (SDS-PAGE) was run on large vertical gels (12.5% acrylamide, Biorad).
Proteins were separated by SDS-PAGE (12.5%) and transferred to a PVDF membrane (Hybond-P, Amersham Pharmacia Biotech). […]

specific MG-derived AGE = experiment: Detection of the specific MG-derived AGE by Western blot with mAb6B, densitometry of the ECL signal
Description: L929 cells were seeded 48 hours prior to the experiment. TNF incubations (1000 U/ml) were done in the presence of CHX to synchronize cell death. After TNF incubations (1.5 hours or 2.5 hours), the cells were rinsed three times with ice-cold PBS buffer and cell lysates were prepared in a CHAPS-containing cytosol extraction buffer (Guy et al., 1992). […] To use the antibody sparingly, SDS-PAGE gels were only run over a distance of 5 cm.

[1] = L929 cells pretreated (BBGD 20 μM; H89 5 μM), after 1.5 hours of TNF treatment
[2] = L929 cells pretreated (BBGD 20 μM; H89 5 μM), after 2.5 hours of TNF treatment

O=S(=O)(NCCNC/C=C/c1ccc(Br)cc1)c1cccc2cnccc12 [H89]
effect on TNF-induced cell death (L929 cells; pretreatment 2 hours, 1 μM): inhibitory effect | inhibition of TNF-induced cell death (L929 cells; pretreatment 2 hours, 5 μM): > 50% | effect on induction of the more acidic (phosphorylated) isoform of glyoxalase I by TNF (glyoxalase I; L929 cells, pretreatment, 5 μM): completely abolished | reduction of formation of the specific MG-derived AGE (specific MG-derived AGE; [1]): 70% | reduction of formation of the specific MG-derived AGE (specific MG-derived AGE; [2]): 20%

COc1ccc(O)c(C(C)(C)C)c1 [BHA, butylated hydroxyanisole]
reduction of formation of the specific MG-derived AGE (specific MG-derived AGE; TNF 1000 U/ml + CHX, 2.5 hours, BHA 100 μM given 0.5 hour after TNF): 65%

N=C(N)NN [aminoguanidine]
inhibition of TNF-induced cell death (L929 cells; 16 hours TNF 20 U/ml, 400 μM): 15% | maximum inhibition of TNF-induced cell death (L929 cells; 16 hours TNF 20 U/ml, 600 or 800 μM): 25%

O=CC[C@@H](O)[C@H](O)[C@H](O)CO [2-deoxyglucose]
inhibition of TNF-induced cell death (L929 cells; 2-deoxyglucose 2:1 ratio to glucose): 65% | inhibition of formation of the specific MG-derived AGE (specific MG-derived AGE; TNF 1000 U/ml + CHX, 2.5 hours, 2-deoxyglucose 2:1 ratio to glucose, given with TNF): 65%

NC(CCC(=O)NC(CSCc1ccc(Br)cc1)C(=O)NCC(=O)OC1CCCC1)C(=O)OC1CCCC1 (stereo not shown) [BBGD, s-p-bromobenzylglutathione cyclopentyl diester]
increase in TNF-induced cell death (synergistic effect) (L929 cells; inhibitor and TNF added at the same time, 20 μM): 50% | inhibition of TNF-induced cell death (L929 cells; preincubation 1 hour 10 minutes with inhibitor, 20 μM): 60% | effect on TNF-induced phosphorylation of GLO1 (glyoxalase I; cells preincubated with the inhibitor for 1 hour 10 minutes, 2-D gels pH 3–10): inhibits the TNF-induced phosphorylation of GLO1 | reduction of formation of the specific MG-derived AGE (specific MG-derived AGE; [1]): 50% | reduction of formation of the specific MG-derived AGE (specific MG-derived AGE; [2]): 10%

CC(=O)C=O [MG, methylglyoxal]
effect of exogeneously added MG on TNF-induced cell death (L929 cells; 5.5 hours incubation with TNF and methylglyoxal, concentration-dependent): strongly synergistic
